Assay results: US10865216B2, “Tricyclic Gyrase inhibitors” (MERCK SHARP & DOHME CORP., priority 2012, dated 2020)
Values after ≈ are worked out from the molar mass of the structure shown. Where two headings read alike, the source gives them in different places.

Legend:
E. coli ATCC 25922 = test: MIC, E. coli ATCC 25922; type: cell-based; conditions: for MIC: Escherichia coli
S. aureus ATCC 13709 = test: MIC, S. aureus ATCC 13709; type: cell-based; conditions: for MIC: Staphylococcus aureus
[1] = ATCC25922, E. coli, Alamar Blue read after overnight incubation at 35° C., read-out: MIC Ec
[2] = ATCC13709, S. aureus, Alamar Blue read after overnight incubation at 35° C., read-out: MIC Sa
[3] = E. coli, Alamar Blue read after overnight incubation at 35° C.
[4] = S. aureus, Alamar Blue read after overnight incubation at 35° C.
[5] = ATCC25922, Table 16, new R4 substituents, EC8 not defined, read-out: EC8 MIC
[6] = ATCC13709, Table 16, new R4 substituents, read-out: SA MIC

| SMILES | MIC (E. coli ATCC 25922; [1]) | MIC (S. aureus ATCC 13709; [2]) | MIC Ec (E. coli ATCC 25922; [3]) | MIC Sa (S. aureus ATCC 13709; [4]) | also measured |
| --- | --- | --- | --- | --- | --- |
| CNc1cccc2c1[nH]c1nc(Sc3cnc4cccnc4c3)nc(N3C[C@H](N)C[C@H]3C)c12 [Compound 1.61] | 64 µg/mL (≈ 140 µM) | 8 µg/mL (≈ 17.5 µM) | – | – | – |
| CNc1cc(F)cc2c1[nH]c1nc(Oc3cnc4cc(C5CC5)nn4c3)nc(N3C[C@H]4C[C@@H]3C[C@H]4N)c12 [Compound 10.36] | – | – | – | – | MIC Ec (E. coli ATCC 25922; Table 18, Ec): ≤ 0.5 µg/mL; MIC Sa (S. aureus ATCC 13709; Table 18, Sa): ≤ 0.5 µg/mL |
| CNc1cc(F)cc2c1[nH]c1nc(SCc3cccnc3)nc(N3C[C@H]4C[C@@H]3C[C@H]4N)c12 [Compound 10.49] | – | – | – | – | MIC Ec (E. coli ATCC 25922; Table 18, Ec): 2 µg/mL (≈ 4.45 µM); MIC Sa (S. aureus ATCC 13709; Table 18, Sa): ≤ 0.5 µg/mL |
| CNc1ccc(C)c2c1[nH]c1nc(Sc3cnc4ccc[n+]([O-])c4c3)nc(N3CC4C(N)C4C3)c12 (centres unmarked) [Compound 1.73] | 8 µg/mL (≈ 16.5 µM) | ≤ 0.5 µg/mL | – | – | – |
| CNc1cc(F)cc2c1[nH]c1nc(Oc3cnc(C)nc3)nc(N3CC(N)C(C(F)(F)F)C3)c12 (centres unmarked) [Compound 4.436] | > 16 µg/mL | ≤ 0.5 µg/mL | – | – | – |
| CNc1cc(F)cc2c1[nH]c1nc(Oc3cnc(NCC4CCCO4)nc3)nc(N3C[C@H](N)C4(CC4)C3)c12 (some centres unmarked) [Compound 4.406] | – | – | 1 µg/mL (≈ 1.92 µM) | ≤0.5 µg/mL | – |
| CNc1cc(F)cc2c1[nH]c1nc(Oc3cncnc3)nc(N3CCC(C4(N)CC4)C3)c12 (centres unmarked) [Compound 4.017] | – | – | ≤0.5 µg/mL | ≤0.5 µg/mL | – |
| CNc1cccc2c1[nH]c1nc(Oc3cncnc3)cc(N3CC4C(N)C4C3)c12 (centres unmarked) [Compound 3.28] | 2 µg/mL (≈ 5.16 µM) | 1 µg/mL (≈ 2.58 µM) | – | – | – |
| CNc1cc(F)cc2c1[nH]c1nc(Oc3cncc(C#N)c3)nc(N3CC4C(N)C4C3)c12 (centres unmarked) [Compound 4.050] | – | – | ≤0.5 µg/mL | ≤0.5 µg/mL | – |
| CNc1cc(F)cc2c1[nH]c1nc(Sc3cnc4cccnc4c3)nc(N3CC(N)C4(CC4)C3)c12 (centres unmarked) [Compound 1.62] | ≤ 0.5 µg/mL | ≤ 0.5 µg/mL | – | – | – |
| Cc1ncc(Oc2nc(N3C[C@H](N)C4(CC4)C3)c3c(n2)[nH]c2c(N(C)C(=O)[C@H](C)N)cc(F)cc23)cn1 [Compound 4.423] | > 16 µg/mL | > 16 µg/mL | – | – | – |
| CNc1cc(F)cc2c1[nH]c1nc(Oc3cnc(N4CC(O)C4)nc3)nc(N3CC4C(N)C4C3)c12 (centres unmarked) [Compound 4.298] | – | – | 2 µg/mL (≈ 4.19 µM) | ≤0.5 µg/mL | – |
| CNc1cc(F)cc2c1[nH]c1nc(Oc3cnc(N(C)C)nc3)nc(N3CC4C(N)C4C3)c12 (centres unmarked) [Compound 4.208] | – | – | ≤0.5 µg/mL | ≤0.5 µg/mL | – |
| CNc1cc(F)cc2c1[nH]c1nc(Oc3ccc4sc(C)nc4c3)nc(N3CC4CC(N)CC4C3)c12 (centres unmarked) [Compound 4.321] | – | – | 1 µg/mL (≈ 1.99 µM) | ≤0.5 µg/mL | – |
| CNc1cccc2c1[nH]c1nc(Oc3cncc(F)c3)cc(N3CCC4(CNC4)C3)c12 [Compound 3.66] | > 32 µg/mL | 8 µg/mL (≈ 19.1 µM) | – | – | – |
| CNc1cccc2c1[nH]c1nc(Oc3ccc4nccnc4c3)cc(N3CC4C(N)C4C3)c12 (centres unmarked) [Compound 3.31] | 8 µg/mL (≈ 18.3 µM) | 2 µg/mL (≈ 4.57 µM) | – | – | – |
| CNc1cc(F)cc2c1[nH]c1nc(Oc3cnc4c(C)cnn4c3)nc(N3C[C@H](N)C4(CC4)C3)c12 [Compound 10.20] | – | – | – | – | MIC Ec (E. coli ATCC 25922; Table 18, Ec): ≤ 0.5 µg/mL; MIC Sa (S. aureus ATCC 13709; Table 18, Sa): ≤ 0.5 µg/mL |
| CNc1cccc2c1[nH]c1nc(Oc3cnc4cccnc4c3)cc(N3CC(N)C4(CC4)C3)c12 (centres unmarked) [Compound 3.52] | ≤ 0.5 µg/mL | ≤ 0.5 µg/mL | – | – | – |
| CNc1cc(F)cc2c1[nH]c1nc(Oc3cnc(C)nc3)nc(N3CC(N)C(C(=O)N4CCOCC4)C3)c12 (centres unmarked) [drawing 1827] | – | – | – | – | MIC (E. coli ATCC 25922; [5]): 16 µg/mL (≈ 30.7 µM); MIC (S. aureus ATCC 13709; [6]): 1 µg/mL (≈ 1.92 µM) |
| CNc1cc(F)cc2c1[nH]c1nc(Oc3cnc(C(C)O)nc3)nc(N3CC4(CC[C@H]4N)C3)c12 (some centres unmarked) [Compound 4.430] | ≤ 0.5 µg/mL | ≤ 0.5 µg/mL | – | – | – |
| CNc1cc(F)cc2c1[nH]c1nc(Oc3cncnc3)nc(N3CC4CC4(N)C3)c12 (centres unmarked) [Compound 4.005] | – | – | ≤0.5 µg/mL | ≤0.5 µg/mL | – |
| CNc1cc(F)cc2c1[nH]c1nc(Oc3cnc(N4CCOCC4)nc3)nc(N3CCC(CN)C3)c12 (centres unmarked) [Compound 4.215] | – | – | 4 µg/mL (≈ 8.1 µM) | ≤0.5 µg/mL | – |
| CNc1cc(F)cc2c1[nH]c1nc(Oc3cnc4ccnn4c3)nc(N3C[C@H]4CCN[C@H]4C3)c12 [Compound 10.13] | – | – | – | – | MIC Ec (E. coli ATCC 25922; Table 18, Ec): ≤ 0.5 µg/mL; MIC Sa (S. aureus ATCC 13709; Table 18, Sa): ≤ 0.5 µg/mL |
| CNc1cc(F)cc2c1[nH]c1nc(Oc3cncnc3)nc(N3CC4C[C@@H](N)C4C3)c12 (some centres unmarked) [Compound 4.028] | – | – | ≤0.5 µg/mL | ≤0.5 µg/mL | – |
| CNc1cc(F)cc2c1[nH]c1nc(Oc3cnc(C)nc3)nc(N3CC[C@H](CN)C3)c12 | – | – | – | – | MIC (E. coli ATCC 25922; [5]): ≤ 0.5 µg/mL; MIC (S. aureus ATCC 13709; [6]): ≤ 0.5 µg/mL |
| CNc1ccc(C)c2c1[nH]c1nc(Sc3cnc4ccc[n+]([O-])c4c3)nc(N3CC(N)C4(CC4)C3)c12 (centres unmarked) [Compound 1.72] | 1 µg/mL (≈ 2.01 µM) | ≤ 0.5 µg/mL | – | – | – |
| CNc1cc(F)cc2c1[nH]c1nc(Oc3cncnc3)nc(N3CC4C(N)C4C3)c12 (centres unmarked) [Compound 4.001] | – | – | ≤0.5 µg/mL | ≤0.5 µg/mL | – |
| CNc1cccc2c1[nH]c1nc(Oc3cncnc3)cc(N3C[C@H](NC)C4(CC4)C3)c12 [Compound 3.47] | ≤ 0.5 µg/mL | ≤ 0.5 µg/mL | – | – | – |
